Entries after “also recorded” stand apart in the source; their conditions may differ.
Assays:
PC-3 = assay: Growth (cell count) of PC-3 under iberiotoxin/17β-estradiol treatment; assay type: cell-based, human; conditions: two days
Procedure: (§1) “K” represents a control; “I” represents treatment with 0.05 μM Iberiotoxin (Sigma); “E” represents treatment with 0.1 μM Estradiol; and “E+I” represents treatment with both 0.05 μM Iberiotoxin and 0.1 μM Estradiol. Cells were grown in OPTI-MEM (Invitrogen) +0.4% Albu-max (Invitrogen) for two days.
(§2) Cell culture: As standard, the cells were grown in OPTIMEM (Invitrogen) containing 10% FCS (Amimed) and 1% Pen/Strep (Amimed). For iberiotoxin/17β-estradiol treatment 25000 cells were seeded in OPTIMEM, 10% FCS into 6 well plates (Falcon). After one day incubation, the medium was changed to OPTIMEM 1%FCS, 1% Pen/Strep. After another day of incubation the experiment was started by changing the Medium to OPTIMEM 0.4% Albumax (Invitrogen), 1% Pen/Strep containing either only solvents, 50 nM iberiotoxin (Sigma), 100 nM 17β-estradiol (Sigma), or a combination of both. After two days of incubation, the cells were collected and counted.

BPH-1 = assay: Growth (cell count) of BPH-1 under iberiotoxin/17β-estradiol treatment; assay type: cell-based, human; conditions: two days; for effect on estradiol-stimulated growth of BPH-1: 0.05 μM Iberiotoxin + 0.1 μM Estradiol
Procedure: as §1, §2

LNCaP = assay: Growth (cell count) of LNCaP under iberiotoxin/17β-estradiol treatment; assay type: cell-based, human; conditions: two days; for effect on estradiol-stimulated growth of LNCaP: 0.05 μM Iberiotoxin + 0.1 μM Estradiol
Procedure: as §1, §2

[1] = test system: potassium channels in membrane patches of BPH-1 cells; assay: Patch clamp, cell excised inside/out membrane patches of BPH-1 cells; assay type: cell-based, human; conditions: preliminary
Description: (§3) Numerous channels are active under high (1 mmol/l) intracellular Ca^2+ concentration in the membrane patch from PC-3 cells (A), thus single channel currents cannot be resolved. In contrast, little channel activity is present in the BPH-1 membrane patch (B).
(§4) Patch clamp recording was used to further assess the role of KCNMA1.
(§5) The membrane voltage of PC-3 cells is hyperpolarized when compared with that of BPH-1 cells. Moreover, paxillin inhibited potassium channels in cell excised inside/out membrane patches of PC-3 cells, but not in membrane patches of BPH-1 cells. In cell excised inside/out membrane patches of PC-3 cells we found pronounced activity of Ca^2+ activated K^+ channels, while little channel activity was found in excised membrane patches of BPH-1 cells (FIG. 10). Removal of Ca^2+ from the cytosolic side (0 mmol/l) abolished channel activity in both membrane patches of PC-3 and BPH-1 cells. Channel activity was recovered at cytosolic Ca^2+ concentrations of 1 μmol/l (0.001). These preliminary results fit very well to the expression data of KCNMA1 obtained so far.

[2] = biological target: T1, potassium channels in membrane patches of PC-3 cells (Homo sapiens, UniProt Q12791); assay: Patch clamp, cell excised inside/out membrane patches of PC-3 cells; assay type: cell-based; conditions: preliminary
T1 construct: endogenous in cells; host or cells: PC-3 prostate cancer cells (excised inside/out membrane patches)
Description: as §3, §4, §5

[3] = test system: whole cell conductances of PC-3 cells; assay: Whole cell patch clamp, PC-3 cells; assay type: cell-based, human; conditions: iberiotoxin 30 nM, preliminary
[4] = test system: whole cell conductances of BPH-1 cells; assay: Whole cell patch clamp, BPH-1 cells; assay type: cell-based, human; conditions: iberiotoxin 30 nM, preliminary
[5] = 100 nM 17β-estradiol, listed as 17β-estradiol
[6] = 50 nM iberiotoxin, listed as Iberiotoxin

T1 sequence (Q12791 whole entry): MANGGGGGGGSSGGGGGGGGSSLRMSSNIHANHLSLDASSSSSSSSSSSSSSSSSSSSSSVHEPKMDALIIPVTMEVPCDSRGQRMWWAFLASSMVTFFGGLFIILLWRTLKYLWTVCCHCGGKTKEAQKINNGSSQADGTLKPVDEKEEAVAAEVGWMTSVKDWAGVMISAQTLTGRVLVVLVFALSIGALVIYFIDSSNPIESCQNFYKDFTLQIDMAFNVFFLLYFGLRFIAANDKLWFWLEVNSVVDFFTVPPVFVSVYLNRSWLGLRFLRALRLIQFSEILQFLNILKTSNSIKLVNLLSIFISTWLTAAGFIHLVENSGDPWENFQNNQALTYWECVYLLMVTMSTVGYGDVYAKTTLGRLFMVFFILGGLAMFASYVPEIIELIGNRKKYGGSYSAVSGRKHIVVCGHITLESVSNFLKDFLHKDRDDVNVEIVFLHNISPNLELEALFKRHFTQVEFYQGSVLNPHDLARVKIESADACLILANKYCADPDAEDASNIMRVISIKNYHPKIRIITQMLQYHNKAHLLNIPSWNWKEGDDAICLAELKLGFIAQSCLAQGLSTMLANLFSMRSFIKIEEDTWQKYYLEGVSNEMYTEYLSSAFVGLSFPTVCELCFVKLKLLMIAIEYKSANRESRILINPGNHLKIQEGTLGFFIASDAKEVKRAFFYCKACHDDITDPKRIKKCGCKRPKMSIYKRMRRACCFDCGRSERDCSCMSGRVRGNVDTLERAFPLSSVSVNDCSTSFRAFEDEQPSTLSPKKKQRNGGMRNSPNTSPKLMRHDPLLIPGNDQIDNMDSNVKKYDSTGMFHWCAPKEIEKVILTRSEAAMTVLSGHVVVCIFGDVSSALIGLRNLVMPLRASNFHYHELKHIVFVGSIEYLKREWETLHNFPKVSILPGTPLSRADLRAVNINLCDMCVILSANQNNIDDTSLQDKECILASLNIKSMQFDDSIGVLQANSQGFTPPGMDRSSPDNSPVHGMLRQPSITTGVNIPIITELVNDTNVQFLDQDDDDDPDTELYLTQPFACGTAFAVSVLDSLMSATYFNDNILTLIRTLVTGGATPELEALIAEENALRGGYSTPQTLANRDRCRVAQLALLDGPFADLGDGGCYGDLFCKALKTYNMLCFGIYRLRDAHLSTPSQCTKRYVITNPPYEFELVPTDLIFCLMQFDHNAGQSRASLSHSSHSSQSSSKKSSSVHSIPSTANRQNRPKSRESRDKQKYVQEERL

In the case of C[C@]12CC[C@@H]3c4ccc(O)cc4CC[C@H]3[C@@H]1CC[C@@H]2O [estradiol, 17β-estradiol], the “effect on growth of PC-3 (words)” value (PC-3; 100 nM 17β-estradiol) is reported as “not”, the “effect on growth of PC-3 (words)” value (PC-3; [5]) is reported as “no effect” and the “effect on growth of BPH-1 (words)” value (BPH-1; 100 nM 17β-estradiol) is reported as “growth promoting effect”. The “effect on growth of BPH-1 (words)” value (BPH-1; [5]) was “increased proliferation”, the “effect on growth of LNCaP (words)” value (LNCaP; 100 nM 17β-estradiol) was “growth promoting effect” and the “effect on growth of LNCaP (words)” value (LNCaP; [5]) was “increased proliferation; also recorded: increased its growth rate”.

For CC(C)(O)[C@H]1O[C@H]2CC[C@@]3(C)[C@@](O)(CC[C@H]4Cc5c([nH]c6ccccc56)[C@@]43C)C2=CC1=O [paxillin], the “inhibition of potassium channels in excised inside/out membrane patches of BPH-1 cells” value [1] was “not” and the “inhibition of potassium channels in excised inside/out membrane patches of PC-3 cells” value [2] was “inhibited”.

For “iberiotoxin (QFTDVDCSVSKECWSVCKDLFGVDRGKCMGKKCRCYQ; Iberiotoxin; UniProt P24663 1-37, looked up)”, the “effect on whole cell conductances of PC-3 cells” value [3] was “clear inhibitory effect”, the “reduction of the growth rate of PC-3” value (PC-3; 0.05 μM Iberiotoxin, OPTI-MEM + 0.4% Albu-max) was 10-15% and the “effect on growth of PC-3 (words)” value (PC-3; 50 nM iberiotoxin) was “significantly decreased growth rate; also recorded: significant reduction of the growth rate; also recorded: significant growth inhibition; also recorded: could be reduced”. The “effect on estradiol-stimulated growth of BPH-1” value (BPH-1) was “completely reversed”, the “effect on estradiol-stimulated growth of BPH-1” value (BPH-1; listed as Iberiotoxin) was “blocked the growth stimulus” and the “effect on growth of BPH-1 (words)” value (BPH-1; 50 nM iberiotoxin) was “not and no significant effect”. For the same compound, the “effect on growth of BPH-1 (words)” value (BPH-1; [6]) was “no effect”, the “effect on whole cell conductances of BPH-1 cells” value [4] was “no significant effects” and the “effect on estradiol-stimulated growth of LNCaP” value (LNCaP) was “completely reversed; also recorded: could be blocked”. For the same compound, the “effect on estradiol-stimulated growth of LNCaP” value (LNCaP; listed as Iberiotoxin) was “blocked the growth stimulus”, the “effect on growth of LNCaP (words)” value (LNCaP; 50 nM iberiotoxin) was “not and no significant effect and did not react” and the “effect on growth of LNCaP (words)” value (LNCaP; [6]) was “no effect”.

— patent US20070292528A1, “Kcnma1 as a Therapeutic Target in Cancer Treatment” (priority 2003, published 2007)
